Data from ChEMBL document CHEMBL1201862, “PubChem BioAssay data set” (2004).
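Exposure lasted 48 hours, with cells grown in 96-well plates and compounds tested at five concentrations. GI50 is the concentration that inhibits growth by half.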 Active and inactive are the calls of the source. Rule as the data show it: active = GI50 up to about 1.1 µM and inactive = higher.

Tests used:
Assay in all cases: inhibition of tumour cell growth, NCI panel, 48 h
NCI-H522 = test system: NCI-H522
RPMI-8226 = test system: RPMI-8226
IGROV-1 = test system: IGROV-1
K562 = test system: K562
UACC-257 = test system: UACC-257
U-251 = test system: U-251
HOP-62 = test system: HOP-62
OVCAR-4 = test system: OVCAR-4
HCT-116 = test system: HCT-116
M14 = test system: M14
M19-MEL = test system: M19-MEL
RXF 393 = test system: RXF 393
OVCAR-8 = test system: OVCAR-8
HCC 2998 = test system: HCC 2998
786-0 = test system: 786-0
UACC-62 = test system: UACC-62
LOX IMVI = test system: LOX IMVI
SR = test system: SR

Row | Compound | GI50 (NCI-H522) | GI50 (RPMI-8226) | GI50 (IGROV-1) | GI50 (K562) | GI50 (UACC-257) | GI50 (U-251) | GI50 (HOP-62) | GI50 (OVCAR-4) | GI50 (HCT-116) | GI50 (M14) | GI50 (M19-MEL) | GI50 (RXF 393) | GI50 (OVCAR-8) | GI50 (HCC 2998) | GI50 (786-0) | GI50 (UACC-62) | GI50 (LOX IMVI) | GI50 (SR)
1 | O=C(c1cc(=O)c2ccc(O)cc2o1)c1ccc(Cl)cc1Cl | 9.89 µM (inactive) | 9.66 µM (inactive) | 17.7 µM (inactive) | 0.547 µM (active) | 19.5 µM (inactive) | 20.6 µM (inactive) | 8.18 µM (inactive) | 12 µM (inactive) | 13.6 µM (inactive) | 5.12 µM (inactive) | 13.8 µM (inactive) | 29 µM (inactive) | 22.8 µM (inactive) | 9.75 µM (inactive) | 28.2 µM (inactive) | 5.93 µM (inactive) | 3.15 µM (inactive) | 
2 | Cc1nc2c(n1C(C)(C)C)C(=O)c1ccccc1C2=O | 44 µM (inactive) |  | 96.6 µM (inactive) | 49.7 µM (inactive) | 42.6 µM (inactive) | 84.5 µM (inactive) | > 100 µM (inactive) | 92.9 µM (inactive) | 54 µM (inactive) | > 100 µM (inactive) | 24.8 µM (inactive) | > 100 µM (inactive) | 56.8 µM (inactive) | > 100 µM (inactive) | > 100 µM (inactive) | 44.3 µM (inactive) | 41.5 µM (inactive) | 45 µM (inactive)
3 | CC1=CC(C)(c2c[nH]c3ccccc23)CC(C)(C)c2c1[nH]c1ccccc21 (stereo not given) |  | 11.9 µM (inactive) | 16.2 µM (inactive) | 11.9 µM (inactive) | 20.3 µM (inactive) | 15.9 µM (inactive) | 22.8 µM (inactive) | 13.4 µM (inactive) | 11.9 µM (inactive) | 17.9 µM (inactive) | 19.7 µM (inactive) | 12.4 µM (inactive) | 13.7 µM (inactive) | 14.5 µM (inactive) | 13.8 µM (inactive) | 15.2 µM (inactive) | 15.2 µM (inactive) | 12.5 µM (inactive)
4 | COc1ccc(/C=C(\NC(=O)c2ccccc2)c2nc3ccccc3[nH]2)cc1 | 24.7 µM (inactive) | 18.9 µM (inactive) | 30.5 µM (inactive) | 34.9 µM (inactive) | 23.8 µM (inactive) | 30.3 µM (inactive) | 46.2 µM (inactive) | 17.3 µM (inactive) | 35.2 µM (inactive) | 33.4 µM (inactive) | 35.6 µM (inactive) |  | 39.3 µM (inactive) | 41.9 µM (inactive) | 44 µM (inactive) | 24 µM (inactive) |  | 28.1 µM (inactive)
5 | O=C(OCc1ccccc1)N1N=NC2C1C1CC(OCc3ccccc3)(OCc3ccccc3)C2O1 (stereo not given) |  | > 100 µM (inactive) | > 100 µM (inactive) | > 100 µM (inactive) | > 100 µM (inactive) | > 100 µM (inactive) | > 100 µM (inactive) | > 100 µM (inactive) |  | > 100 µM (inactive) | > 100 µM (inactive) | > 100 µM (inactive) |  | > 100 µM (inactive) | > 100 µM (inactive) | > 100 µM (inactive) | > 100 µM (inactive) | 
6 | O=C1c2ccccc2C(=O)c2c1ccc1c3ccccc3n(Cc3ccccc3)c21 | > 100 µM (inactive) | > 100 µM (inactive) | > 100 µM (inactive) | > 100 µM (inactive) |  |  | > 100 µM (inactive) | 53.6 µM (inactive) | > 100 µM (inactive) | > 100 µM (inactive) | 88.7 µM (inactive) |  | > 100 µM (inactive) |  | > 100 µM (inactive) | > 100 µM (inactive) | > 100 µM (inactive) | > 100 µM (inactive)
7 | COc1cc2cccc(/N=C/c3c(Br)ccc(OC)c3OC(C)C)c2cc1OC | 30.5 µM (inactive) | 22.1 µM (inactive) | 59.4 µM (inactive) | 27 µM (inactive) | 35.2 µM (inactive) | 32.8 µM (inactive) | 53.2 µM (inactive) | 33 µM (inactive) | 31 µM (inactive) | 27.1 µM (inactive) | 30.1 µM (inactive) |  | 44.4 µM (inactive) | 65.3 µM (inactive) | 26.5 µM (inactive) | 45.7 µM (inactive) |  | 
8 | Cc1cc(N(CCC#N)CCC#N)ccc1/C=N\c1ccc(C(=O)NN2C(=O)/C(=C/c3ccc(N(CCC#N)CCC#N)cc3)N=C2c2cc([N+](=O)[O-])ccc2Cl)cc1 |  | > 100 µM (inactive) | > 100 µM (inactive) | 33 µM (inactive) | > 100 µM (inactive) | > 100 µM (inactive) | 95.1 µM (inactive) | > 100 µM (inactive) | > 100 µM (inactive) | 62.7 µM (inactive) | > 100 µM (inactive) | > 100 µM (inactive) | > 100 µM (inactive) | > 100 µM (inactive) | > 100 µM (inactive) | 42.5 µM (inactive) | > 100 µM (inactive) | 
9 | CC(C)(C)CC(C)(C)c1cc2c(O)c(c1)Cc1cc(C(C)(C)CC(C)(C)C)cc(c1O)Cc1cc(C(C)(C)CC(C)(C)C)cc(c1O)Cc1cc(C(C)(C)CC(C)(C)C)cc(c1O)Cc1cc(C(C)(C)CC(C)(C)C)cc(c1O)Cc1cc(C(C)(C)CC(C)(C)C)cc(c1O)Cc1cc(C(C)(C)CC(C)(C)C)cc(c1O)Cc1cc(C(C)(C)CC(C)(C)C)cc(c1O)C2 | > 100 µM (inactive) | > 100 µM (inactive) | > 100 µM (inactive) | > 100 µM (inactive) | > 100 µM (inactive) | > 100 µM (inactive) | > 100 µM (inactive) | > 100 µM (inactive) | > 100 µM (inactive) | > 100 µM (inactive) | > 100 µM (inactive) | > 100 µM (inactive) | > 100 µM (inactive) | > 100 µM (inactive) | > 100 µM (inactive) | > 100 µM (inactive) |  | 
10 | O=S(=O)(N/N=C/c1cccc(Cl)c1Cl)c1ccccc1 |  | 66.2 µM (inactive) | 77.4 µM (inactive) | 62.2 µM (inactive) | 48 µM (inactive) | 90.4 µM (inactive) | > 100 µM (inactive) | > 100 µM (inactive) | 47 µM (inactive) | > 100 µM (inactive) | 93.8 µM (inactive) | 22.6 µM (inactive) | 78.2 µM (inactive) | > 100 µM (inactive) | > 100 µM (inactive) | > 100 µM (inactive) | 68.7 µM (inactive) | 38.8 µM (inactive)
11 | COc1cc(Nc2nc3cc(C)ccc3nc2-c2ccccc2)cc(OC)c1OC | 25.6 µM (inactive) |  | 63.8 µM (inactive) | 23.4 µM (inactive) | 47.5 µM (inactive) | 35 µM (inactive) |  | 33 µM (inactive) | 19.9 µM (inactive) | 29.3 µM (inactive) | 24.2 µM (inactive) |  | 36.5 µM (inactive) | 12.3 µM (inactive) | 14.7 µM (inactive) | 21.5 µM (inactive) | 27.2 µM (inactive) | 16.2 µM (inactive)
12 | CC(C)[C@H]1CO[C@]2(C)[C@@H]3CN(Cc4ccccc4)C[C@@H]3C(=O)N12 | > 100 µM (inactive) | > 100 µM (inactive) | > 100 µM (inactive) | > 100 µM (inactive) | > 100 µM (inactive) | > 100 µM (inactive) | > 100 µM (inactive) | > 100 µM (inactive) | > 100 µM (inactive) | > 100 µM (inactive) | > 100 µM (inactive) | > 100 µM (inactive) | > 100 µM (inactive) |  | > 100 µM (inactive) | > 100 µM (inactive) |  | > 100 µM (inactive)
